Measured values reported in patent US7045316B2, “Transporter genes OATP-B,C,D, and E” (Chugai Seiyaku Kabushiki Kaisha, priority 1999, dated 2006).
Read-outs that look alike come from different tables or passages of the source.

Biological target: T1, OATP-C protein (Homo sapiens, UniProt Q9Y6L6)
T1 sequence (Q9Y6L6 1-691): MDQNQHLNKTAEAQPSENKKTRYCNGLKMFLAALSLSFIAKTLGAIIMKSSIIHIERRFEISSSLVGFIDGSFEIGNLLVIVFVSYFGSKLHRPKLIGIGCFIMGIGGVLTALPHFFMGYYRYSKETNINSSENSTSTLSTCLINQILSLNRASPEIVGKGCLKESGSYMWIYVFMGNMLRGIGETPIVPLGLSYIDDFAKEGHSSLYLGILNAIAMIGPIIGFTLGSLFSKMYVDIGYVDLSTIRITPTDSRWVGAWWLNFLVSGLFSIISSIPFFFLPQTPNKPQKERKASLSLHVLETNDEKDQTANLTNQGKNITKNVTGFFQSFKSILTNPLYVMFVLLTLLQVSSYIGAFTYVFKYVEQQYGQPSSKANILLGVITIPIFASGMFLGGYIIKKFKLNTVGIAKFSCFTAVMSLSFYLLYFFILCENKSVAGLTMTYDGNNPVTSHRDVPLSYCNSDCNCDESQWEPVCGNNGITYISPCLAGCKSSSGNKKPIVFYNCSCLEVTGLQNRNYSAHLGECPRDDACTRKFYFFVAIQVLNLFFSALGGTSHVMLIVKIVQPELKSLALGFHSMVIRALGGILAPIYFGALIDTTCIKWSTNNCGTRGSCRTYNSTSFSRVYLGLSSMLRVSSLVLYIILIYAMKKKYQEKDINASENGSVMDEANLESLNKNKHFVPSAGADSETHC
Assay: Transport experiment: uptake of labeled substrates into HEK293 cells transfected with OATP-C
Protocol: The human fetal kidney-derived cell strain, HEK 293 cells, were transfected with the plasmid pcDNA3/OATP-C or the pcDNA3 vector containing no insert as a control (mock) by the calcium phosphate method. Specifically, the plasmid DNA (10 μg), a Hepes buffer solution (137 mM NaCl 5 mM KCl, 0.7 mM Na2HPO4, 6 mM dextrose, and 21 mM Hepes pH 7.1) (1 ml), and 2 M CaCl2 (62.5 μl) were mixed and the resultant mixture was allowed to stand at room temperature for 30 min or more to form calcium phosphate coprecipitates. After the cells were plated on 10-cm diameter plates at a concentration of 1.5×10^6 cells per plate, and the cells were cultured for 24 h. The above-described calcium phosphate coprecipitates were added thereto, and the cells were further cultured for 24 h. Then, plates were washed with phosphate buffered saline (PBS), and after the addition of fresh culture medium, the cells were further cultured for 24 h.
Transport experiment was performed using the cells transfected with the plasmid DNA according to the following procedures. The cells were detached from the plates using a rubber policeman, suspended in a transport buffer (containing 125 mM NaCl, 4.8 mM KCl, 5.6 mM (+)-glucose, 1.2 mM CaCl2, 1.2 mM KH2PO4, 1.2 mM MgSO4, and 25 mM Hepes pH 7.4), and pre-incubated for 20 min. […] Incubated cells were overlaid on a silicon layer formed by laying a mixture of silicon oil and liquid paraffin (specific gravity=1.022) on a 3 M KCl layer, and separated by centrifugation. Radioactivity of cells was measured to determine the into-the-cell transport activity. In this case, 1×10^6 cells were used as one point of cells.
Herein, the culture of HEK 293 cells was performed using Dulbecco's MEM containing 10% FCS (fetal calf serum) as the culture medium in an atmosphere of 5% carbon dioxide at 37° C.

[1] = HEK293 cells expressing OATP-C vs mock, labeled substrate, 37° C. (FIG. 3)

into-the-cell transport activity | SMILES | into-the-cell transport activity [1] | alteration of transport mediated by OATP-C protein (chloride ion substituted with gluconate (FIG. 6)) | alteration of transport mediated by OATP-C protein (sodium ion replaced with N-methylglucamine (FIG. 6))
 | CCCCC[C@H](O)/C=C/[C@H]1[C@H](O)CC(=O)[C@@H]1C/C=C\CCCC(=O)O [prostaglandin E2] | weak transport activity |  | 
 | C[C@]12CC[C@@H]3c4ccc(OS(=O)(=O)O)cc4CC[C@H]3[C@@H]1CCC2=O [estron-3-sulfate] | transport was obviously observed |  | 
 | C[C@@H]1O[C@@H](O[C@H]2C[C@@H](O)[C@]3(CO)[C@H]4[C@H](O)C[C@]5(C)[C@@H](C6=CC(=O)OC6)CC[C@]5(O)[C@@H]4CC[C@]3(O)C2)[C@H](O)[C@H](O)[C@H]1O [ouabain] | weak transport activity |  | 
 | C[C@]12CC[C@@H]3c4ccc(O)cc4CC[C@H]3[C@@H]1CC[C@@H]2O[C@@H]1O[C@H](C(=O)O)[C@@H](O)[C@H](O)[C@H]1O [estradiol-17β-glucuronide] | transport was obviously observed | No alteration | No alteration
weak transport activity | CN(Cc1cnc2nc(N)nc(N)c2n1)c1ccc(C(=O)N[C@@H](CCC(=O)O)C(=O)O)cc1 [methotrexate] |  |  | 
